# Publication PMC4826176, “Identification of H7 as a novel peroxiredoxin I inhibitor to induce differentiation of leukemia cells” (Oncotarget, 2015)
# Legend:
# [1] = target: T1, Prdx I (recombinant human peroxiredoxin I) (Homo sapiens, UniProt Q06830); assay: surface plasmon resonance (Biacore T200), single-cycle kinetics; type: binding; conditions: read-out: dissociation constant
# T1 construct: gene PRDX1; full-length, N-terminal His6 tag (pET28a), expressed in E. coli BL21, purified
# T1 sequence (Q06830 2-199): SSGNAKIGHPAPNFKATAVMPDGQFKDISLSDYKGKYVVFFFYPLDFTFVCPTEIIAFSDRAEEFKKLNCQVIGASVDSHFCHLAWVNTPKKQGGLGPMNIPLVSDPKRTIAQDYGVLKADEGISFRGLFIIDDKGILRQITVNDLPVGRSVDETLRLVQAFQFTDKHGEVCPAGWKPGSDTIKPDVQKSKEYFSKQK
# Source text: surface plasmon resonance (Biacore T200), single-cycle kinetics on Prdx I (recombinant human peroxiredoxin I) | H7 rapidly associated and disassociated from the immobilized Prdx I at a dissociation constant of […]
# [2] = target: T2, Prdx I (endogenous, NB4 cell lysate) (Homo sapiens, UniProt Q06830); assay: cellular thermal shift assay (CETSA) in lysate, Western blot; type: biochemical; conditions: NB4 lysate in PBS, heated 3 min at different temperatures (75.9°C for dose dependence)
# T2 construct: gene PRDX1; endogenous untagged protein in NB4 cell lysate, detected by Western blot
# T2 sequence (Q06830 2-199): T1 sequence (Q06830 2-199)
# [3] = target: T1, Prdx I (recombinant human peroxiredoxin I); assay: peroxidase activity, Trx-Trx reductase-NADPH-coupled spectrophotometric assay; type: biochemical
structure (smiles),measurement,setting,value
CCc1ccc(S(=O)(=O)N=C2C=CC(=O)c3ccccc32)cc1 [H7],Kd,[1],1.57 µM
same,"cellular thermal shift assay (CETSA) in lysate, Western blot",[2],addition of H7 but not DMSO into the cell lysates increased the stability of Prdx I
same,IC50,[3],7.85 µM
